The results in this text go back to patent US20250230147A1, “LACTAMS AS CBL-B INHIBITORS” (Genentech, Inc., priority 2021, published 2025).

Where a name gives a salt, the structure may show the parent alone.

In one assay the target is Cbl-b (Homo sapiens (Human), UniProt Q13191). In words: Cbl-b LCK Ub TR-FRET assay (Cbl-b Lck HTRF). Type of assay: biochemical. An outline of the steps: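 Biotin-Cbl-b preincubated with compound (10-point 3-fold series) 60 min, then His-LCK with 1 mM ATP (2× mixture) added for 90 min at room temperature. Ubiquitination detected by TR-FRET using HA-ubiquitin/UBE2D2 adduct, anti-HA-D2 and streptavidin-Eu; IC50 normalised to no-LCK and DMSO controls.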
Sequence of Cbl-b (Q13191 40-426): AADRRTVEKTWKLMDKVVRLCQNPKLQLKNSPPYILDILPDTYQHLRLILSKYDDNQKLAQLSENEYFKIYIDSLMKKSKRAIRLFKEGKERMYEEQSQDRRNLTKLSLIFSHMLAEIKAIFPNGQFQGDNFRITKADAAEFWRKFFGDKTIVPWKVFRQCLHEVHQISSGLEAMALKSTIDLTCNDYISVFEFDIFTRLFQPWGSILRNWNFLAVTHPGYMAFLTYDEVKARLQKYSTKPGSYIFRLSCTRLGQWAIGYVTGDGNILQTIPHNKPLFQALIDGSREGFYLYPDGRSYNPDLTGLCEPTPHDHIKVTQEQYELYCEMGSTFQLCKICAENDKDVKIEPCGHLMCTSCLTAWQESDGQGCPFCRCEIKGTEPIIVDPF
On the technique in general: In TR-FRET formats the signal depends on donor and acceptor labels being close together.

Another assay concerns the target c-Cbl (Homo sapiens (Human), UniProt P22681). In words: C-Cbl LCK Ub TR-FRET assay (c-cbl Lck HTRF). Type of assay: biochemical. The conditions noted are these: for (fold-selectivity): C-cbl Lck HTRF IC50 relative to Cbl-b Lck HTRF IC50. In short, it runs like this: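 After the ubiquitination reaction, detection mixture was added and plates incubated 20 min at room temperature before reading. IC50 values were calculated with wells lacking LCK as the low control and DMSO as the high control.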

Sequence of c-Cbl (P22681 47-435): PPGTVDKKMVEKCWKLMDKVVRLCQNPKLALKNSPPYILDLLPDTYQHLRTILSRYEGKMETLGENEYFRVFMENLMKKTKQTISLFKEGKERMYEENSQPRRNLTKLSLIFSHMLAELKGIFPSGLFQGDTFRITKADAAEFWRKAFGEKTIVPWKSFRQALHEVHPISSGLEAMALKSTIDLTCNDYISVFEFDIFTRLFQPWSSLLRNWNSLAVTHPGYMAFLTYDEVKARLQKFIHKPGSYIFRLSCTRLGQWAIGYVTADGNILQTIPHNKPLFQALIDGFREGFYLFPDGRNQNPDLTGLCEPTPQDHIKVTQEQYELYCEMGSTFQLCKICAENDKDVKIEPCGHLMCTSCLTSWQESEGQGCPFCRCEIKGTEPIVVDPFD

The IC50 is the concentration that inhibits the measured activity by half. Read a low IC50 as greater potency. `COC[C@@H]1CCCN1Cc1cc2c(c(C(F)(F)F)c1)CN(c1cccc(C3([C@@H](F)c4nncn4C)COC3)c1)C2=O` [Compound 159, 2-(3-(3-((R)-fluoro(4-methyl-4H-1,2,4-triazol-3-yl)methyl)oxetan-3-yl)phenyl)-6-(((S)-2-(methoxymethyl)pyrrolidin-1-yl)methyl)-4-(trifluoromethyl)isoindolin-1-one] had a half-inhibitory concentration (IC50) against Cbl-b of 350 nM. Further, at c-Cbl, the IC50 turned out to be 1200 nM and the “(fold-selectivity)” value came out at 3.4x.
In the same order, the values of `Cn1cnnc1CC1(c2cccc(N3Cc4c(cc(CNC5CC6(COC6)C5)cc4C(F)(F)F)C3=O)c2)CC(F)(F)C1` [Compound 366, 6-((2-oxaspiro[3.3]heptan-6-ylamino)methyl)-2-(3-(3,3-difluoro-1-((4-methyl-4H-1,2,4-triazol-3-yl)methyl)cyclobutyl)phenyl)-4-(trifluoromethyl)isoindolin-1-one] are 26 nM, 27 nM and “(1.0x)”.
In the same order, the values of `Cn1cnnc1C[C@]1(c2cccc(N3Cc4c(cc(CNC5(C)CCC5)cc4C(F)(F)F)C3=O)c2)C[C@@H](C#N)C1` [Compound 468, (1s,3s)-3-((4-methyl-4H-1,2,4-triazol-3-yl)methyl)-3-(3-(6-(((1 - methylcyclobutyl)amino)methyl)-1-oxo-4-(trifluoromethyl)isoindolin-2-yl)phenyl)cyclobutanecarbonitrile] are 15 nM, 15 nM and “(1.0x)”.
Taken in the same sequence, the figures for `CC(C)[C@H]1CN(C)CCN1Cc1cc2c(c(C(F)(F)F)c1)CN(c1cc(C3([C@H](F)c4nncn4C)CCC3)cc(NCC3CC3)n1)C2=O` [Compound 279, 2-(6-((cyclopropylmethyl)amino)-4-(1-((S)-fluoro(4-methyl-4H-1,2,4-triazol-3-yl)methyl)cyclobutyl)pyridin-2-yl)-6-(((S)-2-isopropyl-4-methylpiperazin-1-yl)methyl)-4-(trifluoromethyl)isoindolin-1-one] were 7.9 nM, 10 nM and “(1.4x)”.
As to `CC[C@@H]1CCC[C@H](c2cc3c(c(C(F)(F)F)c2)CN(c2cccc(C4(Cc5nncn5C)CC(F)(F)C4)c2)C3=O)N1` [Compound 274, 2-(3-(3,3-difluoro-1-((4-methyl-4H-1,2,4-triazol-3-yl)methyl)cyclobutyl)phenyl)-6-((2R,6R)-6-ethylpiperidin-2-yl)-4-(trifluoromethyl)isoindolin-1-one], at Cbl-b, the IC50 is 140 nM. On c-Cbl, the IC50 was determined as 220 nM and the “(fold-selectivity)” value is recorded as “(1.6x)”.
Taken in the same sequence, the figures for `Cc1cnn(CC2(c3cccc(N4Cc5c(cc(CN6CCN(C)C[C@@H]6C(C)C)cc5C(F)(F)F)C4=O)c3)COC2)n1` [Compound 256, (S)-6-((2-isopropyl-4-methylpiperazin-1-yl)methyl)-2-(3-(3-((4-methyl-2H-1,2,3-triazol-2-yl)methyl)oxetan-3-yl)phenyl)-4-(trifluoromethyl)isoindolin-1-one] were 15 nM, 13 nM and “(0.83x)”.
As to `Cn1cc(CNc2cc(C3(Cc4nncn4C)CCC3)cc(N3Cc4c(cc(CNC5(C)CCC5)cc4C(F)(F)F)C3=O)n2)cn1` [Compound 313, 2-(6-(((1-methyl-1H-pyrazol-4-yl)methyl)amino)-4-(1-((4-methyl-4H-1,2,4-triazol-3-yl)methyl)cyclobutyl)pyridin-2-yl)-6-(((1-methylcyclobutyl)amino)methyl)-4-(trifluoromethyl)isoindolin-1-one], the IC50 was 24 nM against Cbl-b and 23 nM against c-Cbl. Besides, on c-Cbl, the “(fold-selectivity)” value is “(0.95x)”.
In the case of `CC1CCN(CCNc2cc(C3(Cc4nncn4C)CCC3)cc(N3Cc4c(cc(CNC5(C)CCC5)cc4C(F)(F)F)C3=O)n2)CC1` [Compound 309, 2-(4-(1-((4-methyl-4H-1,2,4-triazol-3-yl)methyl)cyclobutyl)-6-((2-(4-methylpiperidin-1-yl)ethyl)amino)pyridin-2-yl)-6-(((1-methylcyclobutyl)amino)methyl)-4-(trifluoromethyl)isoindolin-1-one formate], the IC50 against Cbl-b worked out at 540 nM; against c-Cbl, 520 nM.
For the molecule `CN(CCC(C)(C)O)Cc1cc2c(c(C(F)(F)F)c1)CN(c1cccc(C3([C@@H](F)c4nncn4C)COC3)c1)C2=O` [Compound 157, (R)-2-(3-(3-(fluoro(4-methyl-4H-1,2,4-triazol-3-yl)methyl)oxetan-3-yl)phenyl)-6-(((3-hydroxy-3-methylbutyl)(methyl)amino)methyl)-4-(trifluoromethyl)isoindolin-1-one], the IC50 against Cbl-b is 72 nM. Also, on c-Cbl, the IC50 is 110 nM and the “(fold-selectivity)” value is on record as 1.6x.
As for `CCNC(=O)CNc1cc(C2(Cc3nncn3C)CCC2)cc(N2Cc3c(cc(CNC4(C)CCC4)cc3C(F)(F)F)C2=O)n1` [Compound 307, N-ethyl-2-((4-(1-((4-methyl-4H-1,2,4-triazol-3-yl)methyl)cyclobutyl)-6-(6-(((1-methylcyclobutyl)amino)methyl)-1-oxo-4-(trifluoromethyl)isoindolin-2-yl)pyridin-2-yl)amino)acetamide formate], the IC50 turned out to be 180 nM against Cbl-b and 310 nM against c-Cbl.
`CC(C)[C@H]1CN(C)CCN1Cc1cc2c(c(C(F)(F)F)c1)CN(c1cccc(C3([C@@H](F)c4nc(F)cn4C)COC3)c1)C2=O` [Compound 269, 2-(3-(3-((R)-fluoro(4-fluoro-1-methyl-1H-imidazol-2-yl)methyl)oxetan-3-yl)phenyl)-6-(((S)-2-isopropyl-4-methylpiperazin-1-yl)methyl)-4-(trifluoromethyl)isoindolin-1-one] showed an IC50 against Cbl-b of 210 nM. At c-Cbl, the IC50 worked out at 470 nM and the “(fold-selectivity)” value is given as “(2.3x)”.
In the same order, the values of `C[C@@H]1COCCN1c1cc(C2(Cc3nncn3C)COC2)cc(N2Cc3c(cccc3C(F)(F)F)C2=O)n1` [Compound 490, (R)-2-(4-(3-((4-methyl-4H-1,2,4-triazol-3-yl)methyl)oxetan-3-yl)-6-(3-methylmorpholino)pyridin-2-yl)-4-(trifluoromethyl)isoindolin-1-one] are 3300 nM, 3500 nM and “(1.0x)”.
With `CO[C@@H]1CCN(Cc2cc3c(c(C(F)(F)F)c2)CN(c2cccc(C4([C@H](F)c5nncn5C)COC4)c2)C3=O)C1` [Compound 48, 2-(3-(3-((S)-fluoro(4-methyl-4H-1,2,4-triazol-3-yl)methyl)oxetan-3-yl)phenyl)-6-(((R)-3-methoxypyrrolidin-1-yl)methyl)-4-(trifluoromethyl)isoindolin-1-one], the IC50 against Cbl-b was 320 nM. Further, at c-Cbl, half-maximal inhibition (IC50) was put at 780 nM and the “(fold-selectivity)” value is listed as 2.4x.
In the same order, the values of `Cn1cnnc1[C@H](F)C1(c2cccc(N3Cc4c(cc([C@@H](N)C5CC5)cc4C(F)(F)F)C3=O)c2)COC1` [Compound 53, 6-((S)-amino(cyclopropyl)methyl)-2-(3-(3-((R)-fluoro(4-methyl-4H-1,2,4-triazol-3-yl)methyl)oxetan-3-yl)phenyl)-4-(trifluoromethyl)isoindolin-1-one] are 34 nM, 63 nM and 1.9x.
In the same order, the values of `CC(C)NCc1cc2c(c(C(F)(F)F)c1)CN(c1cccc(C3(Cc4nncn4C)CC(F)(F)C3)c1)C2=O` [Compound 415, 2-(3-(3,3-difluoro-1-((4-methyl-4H-1,2,4-triazol-3-yl)methyl)cyclobutyl)phenyl)-6-((isopropylamino)methyl)-4-(trifluoromethyl)isoindolin-1-one] are 16 nM, 14 nM and “(0.91x)”.
With `C[C@@H](N)c1cc2c(c(C(F)(F)F)c1)CN(c1cccc(C3([C@@H](F)c4nncn4C)COC3)c1)C2=O` [Compound 191, 6-((R)-1-aminoethyl)-2-(3-(3-((R)-fluoro(4-methyl-4H-1,2,4-triazol-3-yl)methyl)oxetan-3-yl)phenyl)-4-(trifluoromethyl)isoindolin-1-one], the values for the IC50 against Cbl-b and at c-Cbl were 35 nM and 52 nM, respectively. On c-Cbl, the “(fold-selectivity)” value turned out to be 1.5x.
In the same order, the values of `CCOc1cc(C2(Cc3nncn3C)CCC2)cc(N2Cc3c(cc(CN4CCN(C)C[C@@H]4C(C)C)cc3C(F)(F)F)C2=O)n1` [Compound 404, (S)-2-(6-ethoxy-4-(1-((4-methyl-4H-1,2,4-triazol-3-yl)methyl)cyclobutyl)pyridin-2-yl)-6-((2-isopropyl-4-methylpiperazin-1 - yl)methyl)-4-(trifluoromethyl)isoindolin-1-one] are 10 nM, 5.4 nM and “(0.54x)”.
`CC(C)[C@H]1CN(CC(F)(F)F)CCN1Cc1cc2c(c(C(F)(F)F)c1)CN(c1cccc(C3([C@H](F)c4nncn4C)COC3)c1)C2=O` [Compound 201, 2-(3-(3-((S)-fluoro(4-methyl-4H-1,2,4-triazol-3-yl)methyl)oxetan-3-yl)phenyl)-6-(((S)-2-isopropyl-4-(2,2,2-trifluoroethyl)piperazin-1-yl)methyl)-4-(trifluoromethyl)isoindolin-1-one]: on Cbl-b, the IC50 came out at 220 nM. The fold of selectivity at Cbl-b (Cbl-b over c-Cbl, Lck HTRF IC50) is 13.6x. Further, at c-Cbl, the IC50 came out at 3000 nM and the “(fold-selectivity)” value is given as 13 x.
For `Cn1cnnc1[C@H](F)C1(c2cccc(N3Cc4c(cc([C@H](N)C5CCC5)cc4C(F)(F)F)C3=O)c2)COC1` [Compound 392, 6-((R)-amino(cyclobutyl)methyl)-2-(3-(3-((R)-fluoro(4-methyl-4H-1,2,4-triazol-3-yl)methyl)oxetan-3-yl)phenyl)-4-(trifluoromethyl)isoindolin-1-one], the 50% inhibitory concentration (IC50) against Cbl-b worked out at 13 nM; against c-Cbl, 15 nM. Moreover, the “(fold-selectivity)” value on c-Cbl was “(1.1x)”.
